Experimental findings from US9957236B2, “Selective inhibitors interfering with fibroblast growth factor receptor and FRS2 interaction for the prevention and treatment of cancer and other diseases” (LIMITED LIABILITY COMPANY “RUSSIAN PHARMACEUTICAL …, priority 2014, dated 2018) are described below.

Data set [1] deals with triple negative breast cancer SUM52PE. The experiment in a line: Tumor growth of SUM52PE xenograft in nude mice. Type of data set: in vivo. How it is done:
(§1) Females of immunodeficient mice (nude) at the age of 8 weeks were administered 2×10^6 tumor cells of human cell lines with various expression of FGFR2: • cell line of triple-negative breast cancer SUM52PE strongly expressing FGFR2 (purchased from Asterand, Inc. (Detroit, Mich.) • cell line of triple negative breast cancer HS578T weakly expressing FGFR2 (purchased from ATCC (CRL-125) • cell line of non-small cell lung cancer NCI-H226 not expressing FGFR2 (purchased from ATCC (CRL-5826)
(§2) After the tumor growth got established (1 mm^3), the mice were divided into control and treatment groups in accordance with the tumor type.
Control group 1 (N=10): SUM52PE, administration of water through a stomach tube, daily.
Treatment group 1 (N=10): SUM52PE, administration of inhibitor RPT835 through a stomach tube in a dose of 30 mg/kg, daily.
(§3) Size of tumor and weight of animals were measured every 3 day. The mice underwent euthanasia when the tumor reached the size of 2,000 mm^3 or on the 60 day of the experiment.

In data set [2] the test system is HS578T breast cancer cells. Briefly: Crystal Violet proliferation assay, HS578T. Format: cell-based. The conditions noted are these: low FGFR2 expression, bFGF 100 ng/ml, 7 days. From the text:
This research used additional cell lines: SKOV3 (ovarian cancer, ATCC # HTB-77), HS578T (breast cancer, ATCC # HTB-126), T47D (breast cancer, ATCC #HTB-1336), modified line of non-small cells lung cancer A549, line of metastatic melanoma of skin Mel Kor (RF Patent No. 2287578), and additional study of antiangiogenic activity—cell line SVEC-4-10 (endothelial cells, ATCC #CRL-2181).
The cells were cultivated in environment RPMI-1640 (PANECO) (SKOV3, HS578T, T47D, Mel-Kor) or DMEM (PANECO) (SVEC-4-10) containing 10% of embryonal serum cattle (FCS, HyClone), 2 mM glutamine (PANECO), antibiotics (100 IU/mL penicillin and […] streptomycin (all PANECO)) at 37° C. and 5% CO2. Cells at 70-80% monolayer were used for the experiments.
The cells were planted in low density (30 t of cells/ml) in triplets on a 96-cavity plate in an environment containing 0.1% of FCS serum. […] Growth of cells was determined by the modified “Crystal Violet mitogenic method” for 7 days after the experiment start. […] The dye was dissolved in ethanol and measured on a spectrophotometer at 540-560 nm. The curve of cell proliferative activity inhibition was built by the dependence of the percent of the cell quantity (Y axis) on concentration of inhibitor RPT835 in the cavity of the plate (X axis). […]

A further data set concerns the target T1, FGFR1 (Homo sapiens, UniProt P11362).
T1 construct: endogenous in cells; host or cells: HUVEC, Caki-1, KATO III
The experiment in a line: FGFR1 phosphorylation in breast cancer cells MDA MB 134. Type of data set: cell-based. The conditions noted are these: MDA MB 134 cells. From the text: The purpose of this research was assessment of specific action of inhibitor RPT835 specified in this invention with formula II, on interaction of […] and FRS2 and assessment of influence on interaction of other types of FGFR and FRS2. For the experiment, 2 cell lines were selected: • stomach cancer KATO III, expressing FGFR2, and • breast cancer MDA MB 134, expressing FGFR1.
The research procedure was the same as in the previous examples: the cells were cultivated in presence of RPT835 followed by stimulation with FGF-2 and heparin. The other part of the cells was cultivated in presence of RPT835. Phosphorylation of FGFR1 (in breast cancer cells) and FGFR2 (in stomach cancer cells), and also FRS2a (in the both cell lines) and some intracellular kinases (in breast cancer cells) was assessed using manual and automated Western blotting.

Data set [3] has as its system non-small cell lung cancer NCI-H226. Briefly: Tumor growth of NCI-H226 xenograft in nude mice. The conditions noted are these: 30 day; NCI-H226 not expressing FGFR2, 30 mg/kg daily through a stomach tube; P=0.619 vs control. Type of data set: in vivo. Here is the method:
as §1, §2
Control group 3 (N=10): NCI-H226, administration of water through a stomach tube, daily.
Treatment group 3 (N=10): NCI-H226, administration of inhibiter RPT835 through a stomach tube in a dose of 30 mg/kg, daily.
as §3

The conditions of data set [4]: in vivo. From the text: Besides, acute toxicity of inhibitor RPT835 was studied in the following volume in a separate research: • Acute toxicity of the medicine was researched. […] The state of the animals after acute administration testifies of good tolerability of the medicine in doses exceeding the maximal therapeutic ones (about 4.3 mcg/kg) tens—hundreds of times. […]

T1 sequence (P11362 22-822): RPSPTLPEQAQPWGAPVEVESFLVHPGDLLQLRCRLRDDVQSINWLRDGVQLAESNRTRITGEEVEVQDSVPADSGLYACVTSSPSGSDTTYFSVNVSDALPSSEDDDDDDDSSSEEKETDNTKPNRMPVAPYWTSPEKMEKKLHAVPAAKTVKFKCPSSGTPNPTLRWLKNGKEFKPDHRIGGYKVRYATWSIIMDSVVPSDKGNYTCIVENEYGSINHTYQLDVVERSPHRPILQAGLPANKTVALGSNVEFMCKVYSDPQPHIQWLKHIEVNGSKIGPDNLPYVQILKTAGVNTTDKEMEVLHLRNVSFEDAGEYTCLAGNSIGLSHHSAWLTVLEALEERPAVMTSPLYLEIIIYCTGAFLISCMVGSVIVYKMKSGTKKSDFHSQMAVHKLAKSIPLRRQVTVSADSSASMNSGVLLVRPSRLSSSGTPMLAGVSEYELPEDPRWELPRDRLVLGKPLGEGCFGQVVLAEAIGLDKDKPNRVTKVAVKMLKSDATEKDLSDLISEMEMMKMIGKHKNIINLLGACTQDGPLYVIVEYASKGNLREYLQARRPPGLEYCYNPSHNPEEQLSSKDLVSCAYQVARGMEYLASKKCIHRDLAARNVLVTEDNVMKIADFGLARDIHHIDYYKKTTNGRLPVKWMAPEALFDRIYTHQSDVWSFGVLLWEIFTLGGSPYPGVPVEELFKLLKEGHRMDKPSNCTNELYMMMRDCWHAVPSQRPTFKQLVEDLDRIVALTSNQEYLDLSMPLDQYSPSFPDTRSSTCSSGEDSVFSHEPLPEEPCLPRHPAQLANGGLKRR

With `Cc1cc([N+](=O)[O-])c(NS(=O)(=O)c2cccc(C(=O)O)c2)cc1-c1cccnc1` [RPT835, 3-(N-(4-methyl-2-nitro-5-(pyridin-3-yl)phenyl)sulfamoyl)benzoic acid], in data set [1] (30 day, 30 mg/kg daily), the “Slowdown of the tumor growth” value was 60.2%. In data set [1] (30 day, 30 mg/kg daily through a stomach tube), the “average size of the tumor” value was 1,080.7±49 mm3. The “Size of tumor (median)” value was determined as 48.0 mm3 in data set [1] (Day 7, 30 mg/kg daily through a stomach tube); 112.0 mm3 in data set [1] (Day 10, 30 mg/kg daily through a stomach tube); 181.0 mm3 in data set [1] (Day 13, 30 mg/kg daily through a stomach tube); 256.0 mm3 in data set [1] (Day 16, 30 mg/kg daily through a stomach tube); 417.0 mm3 in data set [1] (Day 19, 30 mg/kg daily through a stomach tube); 591.0 mm3 in data set [1] (Day 22, 30 mg/kg daily through a stomach tube). In addition, the “Size of tumor (median)” value is listed as 831.5 mm3 in data set [1] (Day 25, 30 mg/kg daily through a stomach tube); 958.5 mm3 in data set [1] (Day 28, 30 mg/kg daily through a stomach tube); 1,088.0 mm3 in data set [1] (Day 31, 30 mg/kg daily through a stomach tube); 1,134 mm3 in data set [1] (Day 34, 30 mg/kg daily through a stomach tube); 1,174 mm3 in data set [1] (Day 37, 30 mg/kg daily through a stomach tube); 1,208 mm3 in data set [1] (Day 40, 30 mg/kg daily through a stomach tube). In data set [2], the “inhibition of proliferative activity” value is reported as “moderate effect”. Besides, the “phosphorylation of FGFR1” value on FGFR1 is listed as “did not have influence”. The average tumor volume in data set [3] was 1,053±259.7 mm3. Further, the “irritating effect on the mucous membrane of the gastrointestinal tract” value in data set [4] is listed as “does not have an irritating effect”.
